Reference: patent EP1800684A1, “Novel alkyl phospholipid derivatives and uses thereof” (Zentaris GmbH, priority 2005, dated 2007)
Values after ≈ are worked out from the molar mass of the structure shown.

Assays:
Format in all cases: cell-based
[1] = tested on: Candida parapsilosis (ATCC 22019); test: Anti-fungal susceptibility test (microdilution), fungus D; settings: ATCC22019, no visible growth after 48 hours at 35° C, read-out: MIC
Protocol: (§1) The antifungal activities of the test compounds (compounds of the invention and known prior art compounds) were measured according to standard microdilution methods (Cryptococcus/Aspergillus: Ghannoum et al., Journal of Clinical Microbiology 1992, 30 (11): 2881-2886; Candida: Reference method for broth dilution susceptibility testing of yeast: proposed standard, NCCLS document M27-P, National Committee for Clinical Laboratory Standards 1992, Villanova, Pa).
(§2) A serial dilution series starting from 64 µg/mL test compound per well down to 0.125 µg/mL test compound per well was applied for each test compound on each fungus. The MIC of each compound was defined as the concentration which produces no visible growth after 48 hours (Candida) and 72 hours (Cryptococcus, Aspergillus) of culture at 35° C.
(§3) The following fungi were assessed: • A) Candida albicans (ATCC 10231) • B) Candida albicans (ATCC 90028) • C) Candida albicans (strain TS3, Shrikantha et al., Journal of Bacteriology 2000, 182(6):1580-1591) • D) Candida parapsilosis (ATCC 22019) • E) Cryptocoocus neoformans (ATCC 90112) • F) Cryptocoocus neoformans (strain H99; Ganendren et al., Antimicrobial Agents and Chemotherapy, 2004, 48(5):1561-1569) • G) Cryptocoocus gattii (ATCC 32608) • H) Aspergillus fumigatus (ATCC 204305) • I) Aspergillus fumigatus (strain 322-384)

[2] = tested on: Trypanosoma cruzi (Tulahuan-LACZ amstigotes in PEM); test: In vitro drug activity assay, protozoon A (amastigotes in murine peritoneal macrophages, CPRG readout); settings: infected macrophages exposed for 3 days
Protocol: Murine (CD1) peritoneal macrophages were harvested 24 hours after starch induction and dispensed into 96-well plates at a concentration of 4 x 10^5 mL. After 24 hours, the cells were infected with Trypanosoma cruzi Tulahuan LAC-Z amastigotes (grown and cultured according to Buckner et al., Infection and Immunity 1999, 67(1): 403-409). 24 hours later, the infected cells were exposed to the test compounds (compounds of the invention as well as known prior art compounds) for 3 days and 50 µL of 500 µM CPRG-1% Nonidet P-40 was added to each well. The plates were read after 2 to 5 hours at 570 nm (Buckner et al., Antimicrobial Agents and Chemotherapy 1996, 40(11): 2592-2597). ED50 values were calculated with Msxlfit (IDBS).
The following protozoa were assessed: • A) Trypanosoma cruzi (Tulahuan-LACZ amstigotes in PEM, Lorente SO et al., Antimicrobial agents and chemotherapy 2004, 48(8): 2937-2950; Buckner et al., Infection and Immunity 1999, 67(1): 403-409; Buckner et al., Antimicrobial Agents and Chemotherapy 1996, 40(11): 2592-2597) • B) Trypanosoma brucei rhodesiense (strain STIB900, Lorente SO et al., Antimicrobial agents and chemotherapy 2004, 48(8): 2937-2950; Habtemariam S, BMC Pharmacology 2003, 3:6) • C) Plasmodium falciparum (strain K1, Korsinczky M et al., Antimicrobial agents and chemotherapy 2000, 44(8): 2100-2108; Thaitong S and Beale GH, Trans. R. Soc. Trop. Med. Hyg. 1981, 75: 271-273; Trager W and Jensen JB, Science 1976, 193: 673-675) • D) Plasmodium falciparum (strain 3D7, Mu et al., PLoS Biology 2005, 3(10): e335)

[3] = tested on: Candida albicans (ATCC 10231); test: Anti-fungal susceptibility test (microdilution), fungus A; settings: Candida albicans, ATCC10231, no visible growth after 48 hours at 35° C, read-out: MIC
Protocol: as §1, §2, §3

[4] = tested on: RKOp21 (human colon adenocarcinoma) cells; test: XTT cytotoxicity assay, RKOp21 cells; settings: 48 h, 2 days of continuous drug exposure
Protocol: Human tumor cell lines KB/HeLa (ATCC CCL17, human cervix carcinoma), PC3 (ATCC CRL1435, human prostate carcinoma) and RKOp21 (human colon adenocarcinoma) cells were used in an automated XTT screening assay for the assessment of cytotoxicity.
The XTT assay quantifies cellular metabolic activity which correlates with cell viability and cell number. Test compounds (selected compounds of the invention and known substances as controls) are dissolved in culture medium at 600µM and added to the tumor cells in 10 different concentrations in a semi-logarithmic fashion starting from 100 µM as highest concentration.
48h later cellular metabolic activity of cells treated with test compounds is quantified by measurement of the absorbance at 490nm (conversion of XTT dye) in comparison to untreated control cells (100% viability).
KB/HeLa and PC3 cells were cultivated in RPMI medium supplemented with 10% heat inactivated fetal calf serum, 2 mM glutamine, 100 U/ml penicillin, and 100 µg/ml streptomycin. RKOp21 cells were grown in DMEM supplemented with 10% heat inactivated fetal calf serum, 2 mM glutamine, 100 U/ml penicillin, and 100 µg/ml streptomycin. All cells were cultured at 37°C in 5% CO2 humidified air.
On the first day of the experiment cells were harvested from exponential phase cultures by trypsination, counted and plated into 96 well flat-bottom micro titer plates depending on the cell line as listed below:
After a 24h recovery to allow the cells to resume exponential growth, the test compounds were diluted immediately prior to use and transferred in 25µl volume to the wells.
Following 2 days of continuous drug exposure 50µl of freshly prepared XTT-PMS solution (2% […] PMS in PBS + 98% 1 mg/ml XTT in RPMI 1640 without phenol red) was added to the wells. To measure the proportion of living cells, the cells were incubated for 3 h with XTT-PMS reagent at 37°C, 5% CO2, humidified atmosphere allowing to form the formazan salt. The amount of soluble formazan salt produced by cellular reduction of XTT is quantified by measuring the absorbance at 490nm using the Biomek® 2000 ELISA plate reader.
%-inhibition (cytotoxicity) of each test compound was calculated in relation to untreated control cells. Inhibition curves were generated and IC50 values calculated by using GraphPad Prism.

[5] = tested on: Cryptocoocus neoformans (strain H99); test: Anti-fungal susceptibility test (microdilution), fungus F; settings: fungus F; no visible growth after 72 hours at 35° C; read-out: MIC
Protocol: as §1, §2, §3

In the case of `CCCCCCCCCCCCCCCCOP(=O)([O-])OCC[N+]1(C)CCCCC1` [Compound 2, Phosphoric acid 2-(1-methyl-piperidin-1-yl)-ethyl ester hexadecyl ester], the MIC [1] is reported as 2 µg/mL (≈ 4.47 µM), the “ED50 (µg/mL)” value [2] is reported as 0,50 µg/mL and the MIC [3] is reported as 1 µg/mL (≈ 2.23 µM). For the same molecule, the IC50 [4] was 40.9 µM and the MIC [5] was 1 µg/mL (≈ 2.23 µM).
